Marks after values point to notes of the source that are not given here. Each block holds one compound with its values, some of them ahead of it.
Experiments:
Assay type in all cases: cell-based
[1] = test system: Aspergillus niger ATCC 6275; experiment: Agar incorporation test CG128e (Example 11); conditions: 28° C. for 3 days
Procedure: (§1) [table] 0.3 ml of each dilution step is mixed with 15 ml of nutrient medium while the latter is still liquid. After the nutrient medium has solidified, 10 μl of each of the following organism dilutions of the test strains in 0.85% NaCl solution are spotted onto the agar medium: [table] The plates are incubated at 37° C. for 24 hours (A. niger at 28° C. for 3 days) and then the highest dilution (lowest concentration) of the test substance at which growth is just no longer discernible (corresponds to the MIC) is determined.

[2] = test system: Escherichia coli ATCC 10536; experiment: Agar incorporation test CG128e (Example 11); conditions: 24 hours at 37° C.
Procedure: as §1

[3] = test system: Pseudomonas aeruginosa ATCC 15442; experiment: Agar incorporation test CG128e (Example 11); conditions: 24 hours at 37° C.
Procedure: as §1

[4] = test system: Candida albicans ATCC 10231; experiment: Agar incorporation test CG128e (Example 11); conditions: 24 hours at 37° C.
Procedure: as §1

[5] = test system: Escherichia coli NCTC 8196; experiment: Agar incorporation test CG128e (Example 11); conditions: 24 hours at 37° C.
Procedure: as §1

[6] = test system: Salmonella choleraesuis ATCC 9184; experiment: Agar incorporation test CG128e (Example 11); conditions: 24 hours at 37° C.
Procedure: as §1

[7] = test system: Propionibacterium acnes (*) ATCC 6919; experiment: Agar incorporation test CG128e (Example 11); conditions: 24 hours at 37° C.; organism marked *
Procedure: as §1

[8] = test system: Klebsiella pneumoniae ATCC 4352; experiment: Agar incorporation test CG128e (Example 11); conditions: 24 hours at 37° C.
Procedure: as §1

[9] = test system: Staphylococcus aureus ATCC 6538; experiment: Agar incorporation test CG128e (Example 11); conditions: 24 hours at 37° C.
Procedure: as §1

[10] = test system: Proteus vulgaris ATCC 6896; experiment: Agar incorporation test CG128e (Example 11); conditions: 24 hours at 37° C.
Procedure: as §1

[11] = test system: Staphylococcus epidermidis ATCC 12228; experiment: Agar incorporation test CG128e (Example 11); conditions: 24 hours at 37° C.
Procedure: as §1

[12] = test system: Staphylococcus aureus ATCC 9144; experiment: Agar incorporation test CG128e (Example 11); conditions: 24 hours at 37° C.
Procedure: as §1

[13] = test system: C. minutissimum ATCC 23348; experiment: Agar incorporation test CG128e (Example 11); conditions: 24 hours at 37° C.
Procedure: as §1

[14] = test system: Corynebacterium xerosis* ATCC 373; experiment: Agar incorporation test CG128e (Example 11); conditions: 24 hours at 37° C.; organism marked *
Procedure: as §1

[15] = test system: Actynomyces viscosus ATCC 43146; experiment: "Microbicidal Activity" suspension test CG 161/EN1040 (Example 12); conditions: A. viscosus
Procedure: (§2) Bacteria are incubated overnight in CASO broth and adjusted to an organism count of 1-5×10^5 CFU/ml using 0.85% sodium chloride solution. The test substances are pre-pipetted into microtitre plates in amounts of 8 μl per well. The adjusted test organism suspensions are added in amounts of 192 μl per well to the test substances and mixed. After defined contact times, the test batches are mixed, an aliquot is withdrawn and diluted in several steps in a dilution series of 1:10 in a suitable inactivation medium. The test plates are incubated for 24 hours at 37° C. After incubation, the growth is determined on the basis of the turbidity of the test batches (optical density) at 620 nm in a microplate reader. […] One microtitre plate is used for each test organism. All the substances are tested in duplicate.

[16] = test system: Escherichia coli ATCC 10536; experiment: as above; conditions: E. coli
Procedure: as §2

[17] = test system: Staphylococcus aureus ATCC 6538; experiment: as above; conditions: S. aureus
Procedure: as §2

[18] = test system: Escherichia coli NCTC 8196 (=EC); experiment: MIC in microtitre plates (Example 10); set-up: unit not given here; conditions: microtitre plate, 48 hours at 37° C., ≦20% growth
Method in brief: (§3)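 DMSO-dissolved compounds tested in 1:2 serial dilution against overnight CASO broth cultures, inoculum adjusted to 1-5×10^6 CFU/ml then diluted 1:100 in CASO. Incubated 48 hours at 37° C; turbidity read at 620 nm. MIC = lowest concentration giving ≦20% growth versus control; duplicates.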

[19] = test system: Pseudomonas aeruginosa CIP A-22 (=PA); experiment: MIC in microtitre plates (Example 10); set-up: unit not given here; conditions: microtitre plate, 48 hours at 37° C., ≦20% growth
Method in brief: as §3

[20] = test system: Staphylococcus aureus ATCC 9144 (=SA); experiment: MIC in microtitre plates (Example 10); set-up: unit not given here; conditions: microtitre plate, 48 hours at 37° C., ≦20% growth
Method in brief: as §3

[21] = test system: Candida albicans ATCC 10231 (=CA); experiment: MIC in microtitre plates (Example 10); set-up: unit not given here; conditions: microtitre plate, 48 hours at 37° C., ≦20% growth
Method in brief: as §3

[22] = contact time 5 min, test substance 0.12%
[23] = contact time 5 min, test substance 120 ppm
[24] = contact time 30 min, test substance 0.12%
[25] = contact time 30 min, test substance 120 ppm

SMILES: CCCCCCCCCCCCNc1cc(C)nc(-c2cccnc2)n1 [Compound of formula 36]
MIC (agar incorporation) Aspergillus niger ATCC 6275 [1]: >120 | MIC (agar incorporation) Escherichia coli ATCC 10536 [2]: >120 | MIC (agar incorporation) Pseudomonas aeruginosa ATCC 15442 [3]: >120 | MIC (agar incorporation) Candida albicans ATCC 10231 [4]: >120 | MIC (agar incorporation) Escherichia coli NCTC 8196 [5]: 120 | MIC (agar incorporation) Salmonella choleraesuis ATCC 9184 [6]: >120 | MIC (agar incorporation) Propionibacterium acnes (*) ATCC 6919 [7]: 60 | MIC (agar incorporation) Klebsiella pneumoniae ATCC 4352 [8]: 60** | MIC (agar incorporation) Staphylococcus aureus ATCC 6538 [9]: 120 | MIC (agar incorporation) Proteus vulgaris ATCC 6896 [10]: >120 | MIC (agar incorporation) Staphylococcus epidermidis ATCC 12228 [11]: >120 | MIC (agar incorporation) Staphylococcus aureus ATCC 9144 [12]: 120 | MIC (agar incorporation) C. minutissimum ATCC 23348 [13]: 30 | MIC (agar incorporation) Corynebacterium xerosis* ATCC 373 [14]: 60

SMILES: CCCCCCCCCCCCNc1cc(C)nc(C)n1 [Compound of formula 89]
log reduction [15, 22]: 4.9 log | log reduction [15, 23]: 3.9 log | log reduction [15, 24]: >5 log | log reduction [15, 25]: 4.3 log | log reduction [16, 23]: 4.6 log | log reduction [16, 25]: >5 log | log reduction [17, 23]: <1 log | log reduction [17, 25]: 1.7 log | MIC (agar incorporation) Aspergillus niger ATCC 6275 [1]: >120 | MIC (agar incorporation) Escherichia coli ATCC 10536 [2]: >120 | MIC (agar incorporation) Pseudomonas aeruginosa ATCC 15442 [3]: >120 | MIC (agar incorporation) Candida albicans ATCC 10231 [4]: >120 | MIC (agar incorporation) Escherichia coli NCTC 8196 [5]: 120 | MIC (agar incorporation) Salmonella choleraesuis ATCC 9184 [6]: >120 | MIC (agar incorporation) Propionibacterium acnes (*) ATCC 6919 [7]: 3.75 | MIC (agar incorporation) Klebsiella pneumoniae ATCC 4352 [8]: >120 | MIC (agar incorporation) Staphylococcus aureus ATCC 6538 [9]: 7.5 | MIC (agar incorporation) Proteus vulgaris ATCC 6896 [10]: 60 | MIC (agar incorporation) Staphylococcus epidermidis ATCC 12228 [11]: 120 | MIC (agar incorporation) Staphylococcus aureus ATCC 9144 [12]: 7.5 | MIC (agar incorporation) C. minutissimum ATCC 23348 [13]: 3.75 | MIC (agar incorporation) Corynebacterium xerosis* ATCC 373 [14]: 3.75

SMILES: CCCCCCCCCCCCNc1cc(C)nc(C(C)C)n1 [Compound of formula 93, 4-dodecylamino-2-isopropyl-6-methylpyrimidine]
log reduction [15, 22]: >5 log | log reduction [15, 23]: 2 log | log reduction [15, 24]: >5 log | log reduction [15, 25]: 4 log | log reduction [16, 22]: >5 log | log reduction [16, 23]: >5 log | log reduction [16, 24]: >5 log | log reduction [16, 25]: >5 log | log reduction [17, 22]: >5 log | log reduction [17, 23]: 1.4 log | log reduction [17, 24]: >5 log | log reduction [17, 25]: 3.8 log | MIC (agar incorporation) Aspergillus niger ATCC 6275 [1]: >120 | MIC (agar incorporation) Escherichia coli ATCC 10536 [2]: 120 | MIC (agar incorporation) Pseudomonas aeruginosa ATCC 15442 [3]: >120 | MIC (agar incorporation) Candida albicans ATCC 10231 [4]: >120 | MIC (agar incorporation) Escherichia coli NCTC 8196 [5]: 120 | MIC (agar incorporation) Salmonella choleraesuis ATCC 9184 [6]: 120 | MIC (agar incorporation) Propionibacterium acnes (*) ATCC 6919 [7]: 3.75 (*) | MIC (agar incorporation) Klebsiella pneumoniae ATCC 4352 [8]: 60 | MIC (agar incorporation) Staphylococcus aureus ATCC 6538 [9]: 3.75 | MIC (agar incorporation) Proteus vulgaris ATCC 6896 [10]: >120 | MIC (agar incorporation) Staphylococcus epidermidis ATCC 12228 [11]: 3.75 | MIC (agar incorporation) Staphylococcus aureus ATCC 9144 [12]: 3.75 | MIC (agar incorporation) C. minutissimum ATCC 23348 [13]: 1.88 | MIC (agar incorporation) Corynebacterium xerosis* ATCC 373 [14]: 1.88*

SMILES: CCCCN(C)c1cc(C)nc(-c2ccc(C)c(F)c2)n1 [compound 130]
MIC EC [18]: >120 | MIC PA [19]: >120 | MIC SA [20]: 120 | MIC CA [21]: >120

SMILES: CCCCC(CC)CNc1cc(C)nc(-c2ccc(C(C)(C)C)cc2)n1 (stereo not shown) [compound 131]
MIC EC [18]: >120 | MIC PA [19]: >120 | MIC SA [20]: 120 | MIC CA [21]: >120

SMILES: CCCCC(CC)CNc1cc(C)nc(-c2cccs2)n1 (stereo not shown) [compound 132]
MIC EC [18]: >120 | MIC PA [19]: >120 | MIC SA [20]: 60 | MIC CA [21]: >120

Now from value to compound:

MIC EC [18]: >120 | MIC PA [19]: >120 | MIC SA [20]: 15 | MIC CA [21]: >120
SMILES: CCCCC(CC)CNc1cc(C)nc(-c2ccccc2)n1 (stereo not shown) [compound 133]

MIC EC [18]: >120 | MIC PA [19]: >120 | MIC SA [20]: 7.5 | MIC CA [21]: 120
SMILES: CCCCC(CC)CNc1cc(C)nc(-c2ccncc2)n1 (stereo not shown) [compound 134]

MIC EC [18]: 120 | MIC PA [19]: >120 | MIC SA [20]: 60 | MIC CA [21]: 30
SMILES: CCCCC(CC)CNc1cc(C)nc(C)n1 (stereo not shown) [compound 135]

MIC EC [18]: >120 | MIC PA [19]: >120 | MIC SA [20]: 7.5 | MIC CA [21]: 60
SMILES: CCCCC(CC)CNc1cc(C)nc(-c2ccc(C)cc2)n1 (stereo not shown) [compound 136]

MIC EC [18]: 30 | MIC PA [19]: >120 | MIC SA [20]: 15 | MIC CA [21]: 15
SMILES: CCCCC(CC)CNc1cc(C)nc(C2CC2)n1 (stereo not shown) [compound 137]
